Key:
Type in all cases: in vivo, human
[1] = system: Wernicke's encephalopathy; test: Wernicke's encephalopathy findings (MRI of the brain, symptoms) during drug administration
Description: Immediately after the patient was suspected of having Wernicke's encephalopathy, oral administration of a thiamine compound (fursultiamine (Takeda Pharmaceutical Company Limited)) at a dose of 75 mg/day was initiated (administered once a day) and continued every day.
Immediately after the patient was suspected of having Wernicke's encephalopathy, intravenous administration of a thiamine compound (fursultiamine (Takeda Pharmaceutical Company Limited)) (300 mg/day) was performed, and then (from 10 weeks after the start of drug administration), oral administration of the thiamine compound at a dose of 100 to 50 mg/day was continued.

[2] = Serum pyridoxamine and pyridoxal concentrations in schizophrenia patients during drug administration
Description: Measurement of the serum pyridoxamine concentration, the serum pyridoxal concentration, and the serum pyridoxine concentration was outsourced to SRL Inc. or Mitsubishi Chemical Medience Corporation (now LSI Medience Corporation).
Pyridoxamine dihydrochloride was orally administered as a pyridoxamine compound to schizophrenia patients daily, three times a day (morning, noon, and before bedtime) in an amount of 400 mg or 600 mg each time (daily dose of pyridoxamine: about 830 mg or 1250 mg) according to the protocols shown in FIG. 2 (described as “PM dose (mg/one time)” in FIG. 2).

[3] = system: vitamin B1 deficiency; test: Prevention of vitamin B1 deficiency by pyridoxamine compound in combination with thiamine compound; conditions: seven schizophrenia patients; pyridoxamine dihydrochloride 1200 to 1800 mg per day oral for 24 weeks, with fursultiamine 75 mg/day oral from 2 to 21 weeks after start
[4] = system: pentosidine; test: Plasma pentosidine concentration in schizophrenia patients (HPLC); conditions: Day 169 vs Day 1; nine subjects
Description: Drug administration was initiated for nine subjects from whom consent was obtained. The observation period was defined as the period from the day on which consent was obtained (Day −14) to the day 2 weeks after the day of consent (Day 0), and the initial day of drug administration was defined as Day 1. The data of Day 1 is data immediately before the start of administration of the pyridoxamine compound. The drug administration period was defined as the 24-week period from the start of drug administration (Day 1 to Day 169). […]
In the morning […], on the initial day of drug administration (Day 1), and on Day 15, Day 29, Day 85, and Day 169 after the start of drug administration, blood was drawn from the nine subjects above before administration of the drug. […] The plasma pentosidine concentration was measured according to the method described below. […]
The samples prepared as described above were diluted 10-fold with Milli-Q water (diluted samples). […] The diluted samples and the diluted pentosidine standard were subjected to HPLC (HPLC apparatus produced by Shimadzu Science) under the following conditions, and analysis of pentosidine was performed with a fluorescence measuring device (SLC-10Avp; equipped with UV and fluorescence detectors). […]

serum pyridoxamine concentration, times higher than at the start of drug administration ([2]; patient ID No. 3, 4 weeks after the start of drug administration): about 7700 times | serum pyridoxamine concentration, times higher than at the start of drug administration ([2]; patient ID No. 6, 8 weeks after the start of drug administration): about 2100 times
SMILES: Cc1ncc(CO)c(CN)c1O.Cl.Cl [pyridoxamine dihydrochloride]
MRI of the brain finding during drug administration ([1]; patient ID No. 3, 6 weeks after the start of drug administration, after an epilepsy-like symptom): findings suggestive of Wernicke's encephalopathy | MRI of the brain finding during drug administration ([1]; patient ID No. 6, 9 weeks after the start of drug administration): findings suggestive of Wernicke's encephalopathy | findings suggestive of vitamin B1 deficiency [3]: no findings suggestive of vitamin B1 deficiency were observed in any of the seven schizophrenia patients | blood pentosidine concentration at the end of administration versus Day 1 [4]: lower than that on Day 1 in at least seven subjects

— patent US11564924B2, “Pharmaceutical composition formed by combining pyridoxamine compound and thiamine compound” (RENASCIENCE CO., LTD., priority 2014, dated 2023)
